These results are taken from the supplement of paper PMC10307832.

Common to all, as to assay: relative viability (nuclei count vs DMSO), 5 days (fraction); higher = more cells survive
Compound in the assay “Doxorubicin + Alpelisib”: COc1cccc2c1C(=O)c1c(O)c3c(c(O)c1C2=O)C[C@@](O)(C(=O)CO)C[C@@H]3O[C@H]1C[C@H](N)[C@H](O)[C@H](C)O1 [Doxorubicin] + Cc1nc(NC(=O)N2CCC[C@H]2C(N)=O)sc1-c1ccnc(C(C)(C)C(F)(F)F)c1 [Alpelisib] (partner 2 µM)
The method, boiled down:
(§1)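 Values are medians from duplicate plates. Each reflects relative viability, defined as the nuclei count of treated wells over that of vehicle wells. Lung cancer cell lines in 1536-well plates were pin-tool dosed one day after seeding with one drug alone or with a fixed anchor-drug dose plus five library-drug doses (not always all listed) in √10 steps, then fixed, stained and imaged at 4× after 5 days.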

Compound in the assay “BAY61-3606 + Trametinib”: COC1=C(C=C(C=C1)C2=CC3=NC=CN3C(=N2)NC4=C(C=CC=N4)C(=O)N)OC [BAY61-3606] + CC(=O)Nc1cccc(-n2c(=O)n(C3CC3)c(=O)c3c(Nc4ccc(I)cc4F)n(C)c(=O)c(C)c32)c1 [Trametinib] (partner 0.02 µM)
The essentials: as §1

Compound in the assay “Doxorubicin + Crizotinib”: COc1cccc2c1C(=O)c1c(O)c3c(c(O)c1C2=O)C[C@@](O)(C(=O)CO)C[C@@H]3O[C@H]1C[C@H](N)[C@H](O)[C@H](C)O1 [Doxorubicin] + C[C@@H](Oc1cc(-c2cnn(C3CCNCC3)c2)cnc1N)c1c(Cl)ccc(F)c1Cl [Crizotinib] (partner 1 µM)
The essentials:
as §1

Compound in the assay “BAY61-3606 + Decitabine”: COC1=C(C=C(C=C1)C2=CC3=NC=CN3C(=N2)NC4=C(C=CC=N4)C(=O)N)OC [BAY61-3606] + Nc1ncn([C@H]2C[C@H](O)[C@@H](CO)O2)c(=O)n1 [Decitabine] (partner 2 µM)
The method, boiled down: as §1

Turning to UMC-11, the relative viability with Doxorubicin + Alpelisib (first compound 0.001 µM) is 1.11; in the assay with Doxorubicin + Alpelisib (first compound 0.003162 µM), 1.17; in the assay with Doxorubicin + Alpelisib (first compound 0.01 µM), 0.958; with Doxorubicin + Alpelisib (first compound 0.03162 µM) it was 0.693; in the assay with Doxorubicin + Alpelisib (first compound 0.1 µM) it was 0.968; in the assay with BAY61-3606 + Trametinib (first compound 0.02 µM), 0.823. Also, the relative viability with BAY61-3606 + Trametinib (first compound 0.06325 µM) is 0.63; with BAY61-3606 + Trametinib (first compound 0.2 µM) it was 0.509; with BAY61-3606 + Trametinib (first compound 0.6325 µM), 0.759; with BAY61-3606 + Trametinib (first compound 2 µM), 0.688; in the assay with Doxorubicin + Crizotinib (first compound 0.001 µM), 0.539; with Doxorubicin + Crizotinib (first compound 0.003162 µM) it was 0.66. Besides, the relative viability with Doxorubicin + Crizotinib (first compound 0.01 µM) was found to be 0.648; in the assay with Doxorubicin + Crizotinib (first compound 0.03162 µM) it was 0.309; with Doxorubicin + Crizotinib (first compound 0.1 µM) it was 0.386; with BAY61-3606 + Decitabine (first compound 0.02 µM), 0.65; in the assay with BAY61-3606 + Decitabine (first compound 0.06325 µM) it was 0.476; with BAY61-3606 + Decitabine (first compound 0.2 µM), 0.601. Also, the relative viability was determined as 0.597 with BAY61-3606 + Decitabine (first compound 0.6325 µM) and 0.548 with BAY61-3606 + Decitabine (first compound 2 µM).
